Legend:
aortic ring preparations = settings: cited from earlier work
forearm circulation = assay: Sodium nitrite infusion into the brachial artery, forearm blood flow by venous-occlusion plethysmography
Source text: (§1) The protocol was approved by the Institutional Review Board of the National Heart, Lung and Blood Institute, and informed consent was obtained from all volunteer subjects. […] An additional 10 subjects returned three-six months later for a second series of experiments with low dose nitrite infusion. […] No volunteer subject was allowed to take any medication (oral contraceptive agents allowed), vitamin supplements, herbal preparations, nutriceuticals or other “alternative therapies” for at least one month prior to study and were not be allowed to take aspirin for one week prior to study.
(§2) Brachial artery and antecubital vein catheters were placed into the arm, with the intraarterial catheter connected to a pressure transducer for blood pressure measurements and an infusion pump delivering normal saline at 1 mL/min. After 20 minutes of rest, baseline arterial and venous blood samples were obtained and forearm blood flow measurements were made by strain gauge venous-occlusion plethysmography, as previously reported (Panza et al., Circulation, 87, 1468-74, 1993). A series of 7 blood flow measurements were averaged for each blood flow determination. A series of measurements termed Parts I and II were performed in randomized order to minimize a time effect on the forearm blood flow response during nitrite infusion.
(§3) Part I: Following 20 minutes of 0.9% NaCl (saline) solution infusion at 1 mL/min into the brachial artery, arterial and venous blood samples were obtained for the assays described below and forearm blood flow measured. Exercise was performed by repetitive hand-grip at one-third of the predetermined maximum grip strength using a hand-grip dynamometer (Technical Products Co.) (Gladwin et al., Proc Natl Acad Sci USA, 97, 9943-8, 2000; Gladwin et al., Proc Natl Acad Sci USA, 97, 11482-11487, 2000; Cannon et al., J Clin Invest, 108, 279-87, 2001). Each contraction lasted for 10 seconds followed by relaxation for 5 seconds. Following 5 minutes of exercise, forearm blood flow measurements were obtained during relaxation phases of exercise, and arterial and venous samples collected. Following a 20-minute rest period with continued infusion of saline into the brachial artery, repeated baseline blood samples and forearm blood flow measurements were obtained. L-NMMA was then infused at a rate of 1 mL/min (8 μmol/min) into the brachial artery. Following 5 minutes of L-NMMA infusion, forearm blood flow was measured, and arterial and venous blood samples obtained. Forearm exercise was then initiated in that arm during continued L-NMMA infusion. Forearm blood flow was measured and blood samples obtained after 5 minutes of exercise during continued L-NMMA infusion (FIG. 1).
(§4) Part II: After a 30 minute rest period with continued infusion of saline, baseline measurements were obtained, the saline infusion was then stopped, and infusion of nitrite (NaNO2 36 μmol/ml in 0.9% saline) at 1 ml/min was started. […] For the final 9 subjects studied, 0.01-0.03 mM sodium bicarbonate was added to the normal saline, so as to titrate pH to 7.0-7.4. The nitrite solution was light protected and nitrite levels and free NO gas in solution measured by reductive chemiluminescence after all experiments (Gladwin et al., J Biol Chem, 21, 21, 2002).

[1] = as above; settings: human, in vivo
Source text: as §1, §2, §3, §4

deoxyhemoglobin = deoxyhemoglobin (Homo sapiens, UniProt P68871+P69905); settings: 25° C., pH 7.0; cited from earlier work
[2] = test system: right middle cerebral artery vasospasm
Experimental: An autologous arterial blood clot was placed around the right middle cerebral artery (R MCA) of 14 anesthetized Cynomolgus monkeys at day 0. […] Cerebral arteriogram was performed before clot placement and on days 7 and 14, for assessment of DCV. Arteriographic vasospasm was defined as a 25% or greater reduction in the proximal 14 mm of the R MCA area as measured on the AP projection of the cerebral arteriogram (blinded assessment). Mean arterial blood pressure was measured and blood samples were collected daily from day 0; the cerebral spinal fluid samples were collected on day 0, 7, and 14.

[3] = test system: myocardial ischemia-reperfusion injury
Experimental: Briefly, mice were anesthetized with intraperitoneal injections of ketamine (50 mg/kg) and pentobarbital sodium (50 mg/kg). The animals were then attached to a surgical board with their ventral side up. […] The mice were supplemented with 100% oxygen via the ventilator side port. A median sternotomy was performed using an electric cautery and the proximal left main coronary artery was visualized and completely ligated with 7-0 silk suture mounted on a tapered needle (BV-1 ethicon). In the initial experiments of myocardial infarct size coronary occlusion was maintained for 30-minutes followed by removal of suture and reperfusion for 24 hours. […] In these experiments, two-dimensional echocardiography was performed at baseline and again at 48 hours of reperfusion.
At 24 hours of reperfusion, the mice were anesthetized as described previously, intubated, and connected to a rodent ventilator. A catheter (PE-10 tubing) was placed in the common carotid artery to allow for Evans Blue dye injection. A median sternotomy was performed and the left main coronary artery was re-ligated in the same location as before Evans Blue dye (1.2 mL of a 2.0% solution, Sigma Chemical Co.) was injected into the carotid artery catheter into the heart to delineate the ischemic zone from the nonischemic zone. The heart was rapidly excised and serially sectioned along the long axis in five, 1 mm thick sections that were then incubated in 1.0% 2,3,5-triphenyltetrazolium chloride (Sigma Chemical Co.) for 5 minutes at 37° C. to demarcate the viable and nonviable myocardium within the risk zone.
Ventricular parameters were measured using leading-edge technique. M-mode (sweep speed=200 mm/sec) echocardiograms were captured from parasternal, short and long-axis 2D views of the left ventricle (LV) at the mid-papillary level. LV percent fractional shortening (FS) was calculated according to the following equation: LV % FS=((LVEDD−LVESD)/LVEDD)×100. All data were calculated from 10 cardiac cycles per experiment.

[4] = 48 nmoles of nitrite, n=3; before 594±83
Experimental: For blood nitrite measurements, 160 μL of whole blood was mixed with 40 μL of a nitrite stabilizing solution containing 80 mM ferricyanide, 20 mM N-ethylmaleimide (NEM), 200 μL diethylenetriaminepentaacetic acid (DTPA), and 0.2% NP-40 (concentrations provided are after mixing with whole blood). The nitrite in whole blood was then measured using tri-idodide-based reductive chemiluminescence as previously described and validated (Gladwin et al., J Biol Chem 21:21, 2002; Yang et al., Free Radic Res 37:1-10, 2003).

[5] = 48 nmoles into left ventricular cavity 5 min prior to reperfusion, versus 48 nmoles nitrate
[6] = 45 minutes ischemia, 48 hours reperfusion

Sequence of deoxyhemoglobin (P69905 2-142 limits assumed): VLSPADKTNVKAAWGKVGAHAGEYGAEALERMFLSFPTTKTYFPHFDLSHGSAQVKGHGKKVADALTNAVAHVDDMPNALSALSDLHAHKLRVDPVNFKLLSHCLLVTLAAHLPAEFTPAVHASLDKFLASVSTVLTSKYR
Sequence of deoxyhemoglobin (P68871 2-147 limits assumed): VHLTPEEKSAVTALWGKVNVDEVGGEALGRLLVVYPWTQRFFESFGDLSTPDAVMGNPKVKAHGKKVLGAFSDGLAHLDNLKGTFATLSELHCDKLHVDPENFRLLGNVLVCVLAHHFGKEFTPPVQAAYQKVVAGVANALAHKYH

O=NO [sodium nitrite]
nitrite concentration that stimulated vasodilation of aortic ring preparations (aortic ring preparations; Furchgott et al. 1953): 100 µM | levels of nitrite shown to vasodilate in vitro (aortic ring preparations; literature): > 100,000 nM | increase in blood flow, low dose (forearm circulation; 360 nmoles per minute): about 22% | forearm blood flow after low-dose nitrite infusion (forearm circulation; 400 nmol/mL at 1 mL/min for five minutes, 10 subjects, baseline 3.49±0.24): 4.51±0.33 ml/min per 100 mL tissue | systemic level of nitrite (contralateral arm) (forearm circulation; 36 μmol/min into brachial artery): 16 µM | decrease of mean blood pressure (forearm circulation; 36 μmol/min into brachial artery, systemic nitrite 16 μM): approximately 7 mm Hg | venous hemoglobin oxygen saturation, pO2 and pH versus pre-infusion values (forearm circulation; 36 μmol/min, 5 min, at rest): significantly increased | forearm nitrite concentration, low dose, at rest (forearm circulation; dose reduced 2-logs (360 nmoles per minute)): 2 µM | forearm nitrite concentration, low dose, during exercise (forearm circulation; dose reduced 2-logs, exercise): 0.9 µM | venous nitrite level after low-dose infusion, during exercise (forearm circulation; low dose, exercise): 909 ± 113 nM | forearm blood flow 30 minutes after cessation of nitrite infusion (forearm circulation; saline for 30 min after infusion, pre-nitrite value 3.94±0.38): 4.79±0.37 mL/min per 100 mL tissue | systemic blood pressure 30 minutes after cessation of nitrite infusion (forearm circulation; saline for 30 min after infusion, pre-nitrite value 89.2±3.5): 82.1±3.7 mm Hg | concentration at 5 min ([1]; both, 36 μmol/min, nitrite level in the ipsilateral antecubital vein (regional forearm nitrite concentration), 36 μmol/min into brachial artery, 5 min, 18 healthy subjects): ~222000 nM | concentration at 5 min ([1]; 0.36 μmol/min, mean venous nitrite level after low-dose infusion, at rest, low dose, five-minute infusion, baseline 176±17): 2560 ± 462 nM | concentration at 5 min ([1]; 360 nmoles per minute, forearm nitrite concentration, low dose, at rest, dose reduced 2-logs (360 nmoles per minute)): ~2000 nM | rate constant of nitrite reduction to NO and methemoglobin (deoxyhemoglobin): 2.9 M⁻¹ s⁻¹ | blood levels of nitrite ([2]; 45 mg/kg and 60 mg/kg per day): 10000 to 60000 nM | increases in blood methemoglobin concentrations ([2]; 45 mg/kg and 60 mg/kg per day): ≤ 2% | methemoglobin formation ([2]; 45 mg/kg and 60 mg/kg per day): < 5% | mean reduction in the R MCA area on day 7 after SAH ([2]; 45 mg/kg and 60 mg/kg per day i.v. for 14 days, saline 45±5): 8±9% | systemic hypotension ([2]; 14 days infusion): without systemic hypotension | toxicity ([2]; 14 days infusion): no clinical or pathological evidence of nitrite toxicity | development of significant vasospasm ([2]; nitrite infused animals, n=6): no animals developed significant vasospasm | reduction of myocardial infarct size per area-at-risk [3, 5]: 67% | reduction of myocardial infarct size per left ventricle [3, 5]: 67% | left ventricular fractional shortening versus vehicle group [3, 6]: significantly (p<0.02) greater | myocardial ejection fraction versus baseline [3, 6]: remained essentially unchanged | blood nitrite level after treatment [4]: 727 ± 40 nM

From patent US9700578B2, “Use of nitrite salts for the treatment of cardiovascular conditions” (The United States of America as represented by the …, priority 2003, dated 2017)
